Laboratory results published in PubChem BioAssay AID1963834 (Molecular Pharmacology Branch, DTP, NCI, 2024).

Tested on: 873145-292-R-J1-PDC complex spheroid viability
Experiment: Anticancer human tumor 873145-292-R-J1-PDC patient-derived renal clear cell carcinoma cell line growth inhibition [POLQ]
Settings: for IC50: curve of first compound; for viability, T/C: stronger effect = lower value
Experimental: Multicellular complex tumor spheroid response to Polymerase (POL) inhibitors (novobiocin, ART-558, RP6685) in combination with a variety of drugs and investigational agents in selected tumor cell lines
The POL inhibitors (novobiocin, ART-558, and RP6685) were evaluated both individually and in combination with standard of care and investigational anticancer small molecules within a complex spheroid model of solid tumors. . Complex spheroids include a stromal component modeled by human endothelial cells (HUVEC) and fibroblasts modeled by human mesenchymal stem cells (MSCs). The concentration ranges selected for each drug and investigational agent were based upon clinically achievable concentrations if the clinical Cmax of the agent was known.
Compounds. The drugs and investigational agents: novobiocin (NSC847541), ART-558 (NSC835418), RP-6685 (NSC848927), peposertib (NSC802822), ceralasertib (NSC780249), elimusertib (NSC800525), camonsertib (NSC841442), AZD-1390 (NSC803789), olaparib (NSC753686), talazoparib (NSC767125), rucaparib (NSC756644), sotorasib (NSC818433), MRTX-1133 (NSC836407), SN-38 (NSC673596), topotecan (NSC609699), epotoside (NSC141540), doxorubicin (NSC123127), gemcitabine (NSC613327), 5-fluorouracil (NSC19893), paclitaxel (NSC125973), vemurafenib (NSC761431), MSA-2 (NSC828583), SN-011 (NSC837082), adavosertib (NSC754352), prexasertib (NSC758257), carboplatin (NSC241240) and oxaliplatin (NSC266046), were obtained from the National Cancer Institute (NCI) Developmental Therapeutics Program Chemical Repository (21). The FDA-approved anticancer drug set is available from the Developmental Therapeutics Program at https://dtp.cancer.gov/organization/dscb/obtaining/. […] The stock solutions were prepared in dimethyl sulfoxide (DMSO, Sigma-Aldrich, St. Louis, MO, cat. D2650), except for the platinum compounds which were prepared in saline (Quality Biological, Gaithersburg, MD, cat. 114-055-101), at 800-fold the tested concentration and stored at -70 degrees C prior to their use. All drugs and investigational agents were tested over a range starting from a high concentration at or near the clinical Cmax and decreasing in half-log increments. If the clinical Cmax for an agent had not been determined, the highest concentration tested was 10 microM, except for SN-38, which was tested at a high concentration of 1 microM.
Cell Culture. All cells were maintained in an incubator at 37 degrees C and 5% CO2 with 95% humidity. The PDC lines were cultured according to standard operating procedures established by the NCI PDMR (https://pdmr.cancer.gov). Table 3 of the manuscript, lists the cell lines along with the number of the three cell types plated to form the mct-spheroids and media for tumor cell growth. After thawing, all PDC lines, except 997537-175-T-J1-PDC and 415267-285-R-J2-PDC, were cultured in Matrigel-coated flasks prepared with a working solution of 1X Ham's F-12 nutrient mix, without supplementation (Thermo Fisher Scientific, cat. 11765054), 100 U/mL penicillin-streptomycin (Thermo Fisher Scientific, cat. 15140122), and 2.5% Matrigel (Corning Inc., Corning, NY, cat. 354248) for the first three passages. The two PDC lines 997537-175-T-J1-PDC and 415267-285-R-J2-PDC were cultured on uncoated flasks. The 857933-349-R-J2-PDC line was cultured in 6C/Colon 1B media containing advanced DMEM/F-12 (Thermo Fisher Scientific, cat. 12634028), 10 mM HEPES (Thermo Fisher Scientific, cat. 15630080), 1X GlutaMAX supplement (Thermo Fisher Scientific, cat. 35050061), 0.1 mg/mL primocin (InvivoGen, San Diego, CA, cat. ant-pm-2), 10% defined fetal bovine serum, heat inactivated (HyClone Laboratories Inc., Logan, UT, cat. SH30070.03HI), 50% L-WRN conditioned media (ATCC, cat. CRL-3276), 1.25 mM N-Acetyl-L-cysteine (Sigma-Aldrich, cat. A9165), 10 mM nicotinamide (Sigma-Aldrich, cat. N0636), 1X B-27 supplement (Thermo Fisher Scientific, cat. 17504044), 1X N-2 supplement (Thermo Fisher Scientific, cat. […]

[1] = second compound 0.0316 µM, first compound 0.0316 µM
[2] = second compound 0.0316 µM, first compound 0.1 µM
[3] = second compound 0.0316 µM, first compound 0.316 µM
[4] = second compound 0.0316 µM, first compound 1 µM
[5] = second compound 0.1 µM, first compound 0.0316 µM
[6] = second compound 0.1 µM, first compound 0.1 µM
[7] = second compound 0.1 µM, first compound 0.316 µM
[8] = second compound 0.1 µM, first compound 1 µM
[9] = second compound 0.316 µM, first compound 0.0316 µM
[10] = second compound 0.316 µM, first compound 0.1 µM
[11] = second compound 0.316 µM, first compound 0.316 µM
[12] = second compound 0.316 µM, first compound 1 µM
[13] = second compound 1 µM, first compound 0.0316 µM
[14] = second compound 1 µM, first compound 0.1 µM
[15] = second compound 1 µM, first compound 0.316 µM
[16] = second compound 1 µM, first compound 1 µM
[17] = second compound 3.16 µM, first compound 0.0316 µM
[18] = second compound 3.16 µM, first compound 0.1 µM
[19] = second compound 3.16 µM, first compound 0.316 µM
[20] = second compound 3.16 µM, first compound 1 µM
[21] = second compound 10 µM, first compound 0.0316 µM
[22] = second compound 10 µM, first compound 0.1 µM
[23] = second compound 10 µM, first compound 0.316 µM
[24] = second compound 10 µM, first compound 1 µM
[25] = second compound 0.0316 µM, first compound 3.16 µM
[26] = second compound 0.0316 µM, first compound 10 µM
[27] = second compound 0.1 µM, first compound 3.16 µM
[28] = second compound 0.1 µM, first compound 10 µM
[29] = second compound 0.316 µM, first compound 3.16 µM
[30] = second compound 0.316 µM, first compound 10 µM
[31] = second compound 1 µM, first compound 3.16 µM
[32] = second compound 1 µM, first compound 10 µM
[33] = second compound 3.16 µM, first compound 3.16 µM
[34] = second compound 3.16 µM, first compound 10 µM
[35] = second compound 10 µM, first compound 3.16 µM
[36] = second compound 10 µM, first compound 10 µM
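Also: spheroids exposed to compounds for 7 days before viability readout.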
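For viability, T/C in this document: luminescence signal used as surrogate for viable cell content; 100% = DMSO vehicle control viability.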

Structure (SMILES): CCc1c2c(nc3ccc(O)cc13)-c1cc3c(c(=O)n1C2)COC(=O)[C@]3(O)CC + Cc1cccc(N(C)C(=O)C2C(O)CCN2c2nc(C)cc(C(F)(F)F)c2C#N)c1
- IC50 (second compound 0.0316 µM): 0.0762 µM
- IC50 (second compound 0.1 µM): 0.0717 µM
- IC50 (second compound 0.316 µM): 0.0686 µM
- IC50 (second compound 1 µM): 0.0649 µM
- IC50 (second compound 3.16 µM): 0.0355 µM
- IC50 (second compound 10 µM): 0.0744 µM
- viability, T/C (second compound 0.0316 µM, first compound 0.00316 µM): 98.7%
- viability, T/C (second compound 0.0316 µM, first compound 0.01 µM): 80.6%
- viability, T/C [1]: 57.2%
- viability, T/C [2]: 46.8%
- viability, T/C [3]: 40%
- viability, T/C [4]: 28.6%
- viability, T/C (second compound 0.1 µM, first compound 0.00316 µM): 103%
- viability, T/C (second compound 0.1 µM, first compound 0.01 µM): 81.6%
- viability, T/C [5]: 54.2%
- viability, T/C [6]: 46.7%
- viability, T/C [7]: 41.9%
- viability, T/C [8]: 28.2%
- viability, T/C (second compound 0.316 µM, first compound 0.00316 µM): 107%
- viability, T/C (second compound 0.316 µM, first compound 0.01 µM): 91.9%
- viability, T/C [9]: 57.9%
- viability, T/C [10]: 45.3%
- viability, T/C [11]: 39.4%
- viability, T/C [12]: 26.1%
- viability, T/C (second compound 1 µM, first compound 0.00316 µM): 97.2%
- viability, T/C (second compound 1 µM, first compound 0.01 µM): 79.8%
- viability, T/C [13]: 64.2%
- viability, T/C [14]: 39.2%
- viability, T/C [15]: 37.9%
- viability, T/C [16]: 29.4%
- viability, T/C (second compound 3.16 µM, first compound 0.00316 µM): 95%
- viability, T/C (second compound 3.16 µM, first compound 0.01 µM): 69.8%
- viability, T/C [17]: 54.1%
- viability, T/C [18]: 36.9%
- viability, T/C [19]: 33.7%
- viability, T/C [20]: 33.2%
- viability, T/C (second compound 10 µM, first compound 0.00316 µM): 87.8%
- viability, T/C (second compound 10 µM, first compound 0.01 µM): 65.6%
- viability, T/C [21]: 56.4%
- viability, T/C [22]: 47.5%
- viability, T/C [23]: 47.6%
- viability, T/C [24]: 31.7%

Structure (SMILES): O=c1[nH]cc(F)c(=O)[nH]1 + Cc1cccc(N(C)C(=O)C2C(O)CCN2c2nc(C)cc(C(F)(F)F)c2C#N)c1
- IC50 (second compound 0.0316 µM): > 10 µM
- IC50 (second compound 0.1 µM): > 10 µM
- IC50 (second compound 0.316 µM): > 10 µM
- IC50 (second compound 1 µM): > 10 µM
- IC50 (second compound 3.16 µM): > 10 µM
- IC50 (second compound 10 µM): > 10 µM
- viability, T/C [1]: 106%
- viability, T/C [2]: 104%
- viability, T/C [3]: 99.8%
- viability, T/C [4]: 102%
- viability, T/C [25]: 115%
- viability, T/C [26]: 93.3%
- viability, T/C [5]: 118%
- viability, T/C [6]: 101%
- viability, T/C [7]: 103%
- viability, T/C [8]: 109%
- viability, T/C [27]: 97.2%
- viability, T/C [28]: 100%
- viability, T/C [9]: 98.3%
- viability, T/C [10]: 106%
- viability, T/C [11]: 91.4%
- viability, T/C [12]: 92.4%
- viability, T/C [29]: 117%
- viability, T/C [30]: 102%
- viability, T/C [13]: 102%
- viability, T/C [14]: 113%
- viability, T/C [15]: 100%
- viability, T/C [16]: 95%
- viability, T/C [31]: 109%
- viability, T/C [32]: 96.8%
- viability, T/C [17]: 93.5%
- viability, T/C [18]: 101%
- viability, T/C [19]: 87.7%
- viability, T/C [20]: 92.6%
- viability, T/C [33]: 101%
- viability, T/C [34]: 104%
- viability, T/C [21]: 98.6%
- viability, T/C [22]: 92.9%
- viability, T/C [23]: 94.7%
- viability, T/C [24]: 98.4%
- viability, T/C [35]: 104%
- viability, T/C [36]: 92%

Structure (SMILES): Nc1ccn(C2OC(CO)C(O)C2(F)F)c(=O)n1 (stereo unspecified) + Nc1ccc(C#CCN(C(=O)Cc2ncc(C(F)(F)F)cc2C(F)(F)F)c2ccc(F)cc2)nn1
- IC50 (second compound 0.0316 µM): > 10 µM
- IC50 (second compound 0.1 µM): > 10 µM
- IC50 (second compound 0.316 µM): 10 µM
- IC50 (second compound 1 µM): > 10 µM
- IC50 (second compound 3.16 µM): > 10 µM
- IC50 (second compound 10 µM): > 10 µM
- viability, T/C [1]: 70.6%
- viability, T/C [2]: 72.4%
- viability, T/C [3]: 61%
- viability, T/C [4]: 56.2%
- viability, T/C [25]: 58.5%
- viability, T/C [26]: 55.8%
- viability, T/C [5]: 71.6%
- viability, T/C [6]: 70.2%
- viability, T/C [7]: 57.3%
- viability, T/C [8]: 54.5%
- viability, T/C [27]: 49.5%
- viability, T/C [28]: 51.7%
- viability, T/C [9]: 73.8%
- viability, T/C [10]: 80.5%
- viability, T/C [11]: 52.6%
- viability, T/C [12]: 54.8%
- viability, T/C [29]: 59.1%
- viability, T/C [30]: 53.4%
- viability, T/C [13]: 67.7%
- viability, T/C [14]: 65.8%
- viability, T/C [15]: 61.8%
- viability, T/C [16]: 70.3%
- viability, T/C [31]: 55.6%
- viability, T/C [32]: 51.7%
- viability, T/C [17]: 72.9%
- viability, T/C [18]: 66.6%
- viability, T/C [19]: 73.7%
- viability, T/C [20]: 64.2%
- viability, T/C [33]: 54.5%
- viability, T/C [34]: 63%
- viability, T/C [21]: 82.7%
- viability, T/C [22]: 67.6%
- viability, T/C [23]: 61.4%
- viability, T/C [24]: 62.1%
- viability, T/C [35]: 59.4%
- viability, T/C [36]: 67.2%
